Tested on: LG0703-F498-PDC complex spheroid growth
Experiment: Anticancer human tumor LG0703-F498-PDC patient-derived lung adenocarcinoma cell line growth inhibition [AhR]
Settings: for IC50: curve of first compound; for viability, T/C: stronger effect = lower value
Method in brief: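 Complex tumor spheroids co-cultured with HUVEC and human MSC stroma; AhR antagonists tested in combination with standard-of-care and investigational agents. Top concentration at or near clinical Cmax (else 10 microM), half-log dilutions; growth expressed as percent test/control.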

[1] = second compound 0.1 µM, first compound 0.00949 µM
[2] = second compound 0.1 µM, first compound 0.03 µM
[3] = second compound 0.1 µM, first compound 0.0949 µM
[4] = second compound 0.1 µM, first compound 0.3 µM
[5] = second compound 0.1 µM, first compound 0.949 µM
[6] = second compound 0.1 µM, first compound 3 µM
[7] = second compound 0.316 µM, first compound 0.00949 µM
[8] = second compound 0.316 µM, first compound 0.03 µM
[9] = second compound 0.316 µM, first compound 0.0949 µM
[10] = second compound 0.316 µM, first compound 0.3 µM
[11] = second compound 0.316 µM, first compound 0.949 µM
[12] = second compound 0.316 µM, first compound 3 µM
[13] = second compound 1 µM, first compound 0.00949 µM
[14] = second compound 1 µM, first compound 0.03 µM
[15] = second compound 1 µM, first compound 0.0949 µM
[16] = second compound 1 µM, first compound 0.3 µM
[17] = second compound 1 µM, first compound 0.949 µM
[18] = second compound 1 µM, first compound 3 µM
[19] = second compound 3.16 µM, first compound 0.00949 µM
[20] = second compound 3.16 µM, first compound 0.03 µM
[21] = second compound 3.16 µM, first compound 0.0949 µM
[22] = second compound 3.16 µM, first compound 0.3 µM
[23] = second compound 3.16 µM, first compound 0.949 µM
[24] = second compound 3.16 µM, first compound 3 µM
[25] = second compound 10 µM, first compound 0.00949 µM
[26] = second compound 10 µM, first compound 0.03 µM
[27] = second compound 10 µM, first compound 0.0949 µM
[28] = second compound 10 µM, first compound 0.3 µM
[29] = second compound 10 µM, first compound 0.949 µM
[30] = second compound 10 µM, first compound 3 µM
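Further: luminescence taken as a proxy for viable cell amount.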
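Wherever viability, T/C is given: percent of DMSO vehicle control where 100% means growth equal to vehicle.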

Work on `CC1COCCN1c1cc(C2(S(C)(=N)=O)CC2)nc(-c2ccnc3[nH]ccc23)n1` (stereo not given) + CC(CO)NC(=O)c1cc(-c2ccc(Cl)cc2)nn(-c2cnn(C)c2)c1=O yielded an IC50 (second compound 0.1 µM) greater than 10000 nM, an IC50 (second compound 0.316 µM) greater than 10000 nM and an IC50 (second compound 1 µM) greater than 10000 nM. For the same molecule, the IC50 (second compound 3.16 µM) was greater than 10000 nM, the IC50 (second compound 10 µM) was greater than 10000 nM and the viability, T/C (second compound 0.1 µM, first compound 0.0316 µM) was 101%. The viability, T/C (second compound 0.1 µM, first compound 0.1 µM) was 91.6%, the viability, T/C (second compound 0.1 µM, first compound 0.316 µM) was 89.7% and the viability, T/C (second compound 0.1 µM, first compound 1 µM) was 99.3%. For the same molecule, the viability, T/C (second compound 0.1 µM, first compound 3.16 µM) was 79.1%, the viability, T/C (second compound 0.1 µM, first compound 10 µM) was 63.4% and the viability, T/C (second compound 0.316 µM, first compound 0.0316 µM) was 92.6%. The viability, T/C (second compound 0.316 µM, first compound 0.1 µM) was 91.7%, the viability, T/C (second compound 0.316 µM, first compound 0.316 µM) was 93.7% and the viability, T/C (second compound 0.316 µM, first compound 1 µM) was 90.2%. It also gave a viability, T/C (second compound 0.316 µM, first compound 3.16 µM) of 86%, a viability, T/C (second compound 0.316 µM, first compound 10 µM) of 53.1% and a viability, T/C (second compound 1 µM, first compound 0.0316 µM) of 97.8%. It also gave a viability, T/C (second compound 1 µM, first compound 0.1 µM) of 92.8%, a viability, T/C (second compound 1 µM, first compound 0.316 µM) of 88.3% and a viability, T/C (second compound 1 µM, first compound 1 µM) of 91%. It also gave a viability, T/C (second compound 1 µM, first compound 3.16 µM) of 68.8%, a viability, T/C (second compound 1 µM, first compound 10 µM) of 60% and a viability, T/C (second compound 3.16 µM, first compound 0.0316 µM) of 89.9%. For the same molecule, the viability, T/C (second compound 3.16 µM, first compound 0.1 µM) was 89%, the viability, T/C (second compound 3.16 µM, first compound 0.316 µM) was 95.8% and the viability, T/C (second compound 3.16 µM, first compound 1 µM) was 82.3%. For the same molecule, the viability, T/C (second compound 3.16 µM, first compound 3.16 µM) was 79.1%, the viability, T/C (second compound 3.16 µM, first compound 10 µM) was 59.1% and the viability, T/C (second compound 10 µM, first compound 0.0316 µM) was 76.1%. For the same molecule, the viability, T/C (second compound 10 µM, first compound 0.1 µM) was 95.3%, the viability, T/C (second compound 10 µM, first compound 0.316 µM) was 73.8% and the viability, T/C (second compound 10 µM, first compound 1 µM) was 83.7%. It also gave a viability, T/C (second compound 10 µM, first compound 3.16 µM) of 59.6% and a viability, T/C (second compound 10 µM, first compound 10 µM) of 51.3%.

`CCN(c1cc(-c2ccc(CN3CCOCC3)cc2)cc(C(=O)NCc2c(C)cc(C)[nH]c2=O)c1C)C1CCOCC1` + CC(CO)NC(=O)c1cc(-c2ccc(Cl)cc2)nn(-c2cnn(C)c2)c1=O was tested, and the IC50 (second compound 0.1 µM) was greater than 3000 nM, the IC50 (second compound 0.316 µM) was greater than 3000 nM and the IC50 (second compound 1 µM) was greater than 3000 nM. It also gave an IC50 (second compound 3.16 µM) greater than 3000 nM, an IC50 (second compound 10 µM) greater than 3000 nM and a viability, T/C [1] of 98.2%. The viability, T/C [2] was 100%, the viability, T/C [3] was 93.9% and the viability, T/C [4] was 96.1%. The viability, T/C [5] was 95.7%, the viability, T/C [6] was 94.6% and the viability, T/C [7] was 105%. The viability, T/C [8] was 112%, the viability, T/C [9] was 101% and the viability, T/C [10] was 92.9%. It also gave a viability, T/C [11] of 114%, a viability, T/C [12] of 105% and a viability, T/C [13] of 91.1%. For the same molecule, the viability, T/C [14] was 95.7%, the viability, T/C [15] was 99% and the viability, T/C [16] was 90%. The viability, T/C [17] was 92.9%, the viability, T/C [18] was 103% and the viability, T/C [19] was 85.1%. For the same molecule, the viability, T/C [20] was 95.3%, the viability, T/C [21] was 96.7% and the viability, T/C [22] was 81.2%. For the same molecule, the viability, T/C [23] was 84.8%, the viability, T/C [24] was 102% and the viability, T/C [25] was 86%. It also gave a viability, T/C [26] of 97.1%, a viability, T/C [27] of 94.2% and a viability, T/C [28] of 93.8%. It also gave a viability, T/C [29] of 78.3% and a viability, T/C [30] of 96.3%.

`Nc1ncn(C2CC(O)C(CO)S2)c(=O)n1` (stereo not given) + CC(CO)NC(=O)c1cc(-c2ccc(Cl)cc2)nn(-c2cnn(C)c2)c1=O was tested, and the IC50 (second compound 0.1 µM) was greater than 300 nM, the IC50 (second compound 0.316 µM) was greater than 300 nM and the IC50 (second compound 1 µM) was greater than 300 nM. For the same molecule, the IC50 (second compound 3.16 µM) was greater than 300 nM, the IC50 (second compound 10 µM) was greater than 300 nM and the viability, T/C (second compound 0.1 µM, first compound 0.000949 µM) was 89.3%. It also gave a viability, T/C (second compound 0.1 µM, first compound 0.003 µM) of 96.6%, a viability, T/C [1] of 95.6% and a viability, T/C [2] of 102%. It also gave a viability, T/C [3] of 92.8%, a viability, T/C [4] of 91.8% and a viability, T/C (second compound 0.316 µM, first compound 0.000949 µM) of 108%. It also gave a viability, T/C (second compound 0.316 µM, first compound 0.003 µM) of 93.9%, a viability, T/C [7] of 96.2% and a viability, T/C [8] of 103%. For the same molecule, the viability, T/C [9] was 97.1%, the viability, T/C [10] was 97.8% and the viability, T/C (second compound 1 µM, first compound 0.000949 µM) was 82.4%. It also gave a viability, T/C (second compound 1 µM, first compound 0.003 µM) of 92%, a viability, T/C [13] of 90.2% and a viability, T/C [14] of 76.9%. The viability, T/C [15] was 84.8%, the viability, T/C [16] was 97.7% and the viability, T/C (second compound 3.16 µM, first compound 0.000949 µM) was 80.5%. For the same molecule, the viability, T/C (second compound 3.16 µM, first compound 0.003 µM) was 90.9%, the viability, T/C [19] was 78.3% and the viability, T/C [20] was 94.8%. For the same molecule, the viability, T/C [21] was 96.1%, the viability, T/C [22] was 89.5% and the viability, T/C (second compound 10 µM, first compound 0.000949 µM) was 86.9%. It also gave a viability, T/C (second compound 10 µM, first compound 0.003 µM) of 86.7%, a viability, T/C [25] of 84.9% and a viability, T/C [26] of 86.7%. For the same molecule, the viability, T/C [27] was 81.9% and the viability, T/C [28] was 92.2%.

With `O=C(C=Cn1cnc(-c2cc(C(F)(F)F)cc(C(F)(F)F)c2)n1)NNc1cnccn1` + CC(CO)NC(=O)c1cc(-c2ccc(Cl)cc2)nn(-c2cnn(C)c2)c1=O the IC50 (second compound 0.1 µM) was 60 nM, the IC50 (second compound 0.316 µM) was 45.6 nM and the IC50 (second compound 1 µM) was 57.3 nM. It also gave an IC50 (second compound 3.16 µM) of 26.9 nM, an IC50 (second compound 10 µM) of 39.7 nM and a viability, T/C [1] of 68.1%. For the same molecule, the viability, T/C [2] was 64.5%, the viability, T/C [3] was 40.4% and the viability, T/C [4] was 40.6%. The viability, T/C [5] was 37.8%, the viability, T/C [6] was 36.9% and the viability, T/C [7] was 67.3%. For the same molecule, the viability, T/C [8] was 54.5%, the viability, T/C [9] was 42.1% and the viability, T/C [10] was 36.2%. It also gave a viability, T/C [11] of 35.6%, a viability, T/C [12] of 32.4% and a viability, T/C [13] of 64.8%. The viability, T/C [14] was 54.1%, the viability, T/C [15] was 48% and the viability, T/C [16] was 36.7%. It also gave a viability, T/C [17] of 34.1%, a viability, T/C [18] of 34.1% and a viability, T/C [19] of 59.5%. It also gave a viability, T/C [20] of 50.1%, a viability, T/C [21] of 36.1% and a viability, T/C [22] of 38.2%. For the same molecule, the viability, T/C [23] was 28.7%, the viability, T/C [24] was 31.4% and the viability, T/C [25] was 61%. For the same molecule, the viability, T/C [26] was 54.7%, the viability, T/C [27] was 35.7% and the viability, T/C [28] was 33.3%. The viability, T/C [29] was 28.6% and the viability, T/C [30] was 28.9%.
